The text below walks through data of patent US9926297B2, “Bicyclic AZA compounds as muscarinic M1 receptor and/or M4 receptor agonists” (Heptares Therapeutics Limited, priority 2014, dated 2018).

In assay [1] the target is T1, human muscarinic M1 receptor (Homo sapiens, UniProt P11229).
T1 sequence (P11229 1-460): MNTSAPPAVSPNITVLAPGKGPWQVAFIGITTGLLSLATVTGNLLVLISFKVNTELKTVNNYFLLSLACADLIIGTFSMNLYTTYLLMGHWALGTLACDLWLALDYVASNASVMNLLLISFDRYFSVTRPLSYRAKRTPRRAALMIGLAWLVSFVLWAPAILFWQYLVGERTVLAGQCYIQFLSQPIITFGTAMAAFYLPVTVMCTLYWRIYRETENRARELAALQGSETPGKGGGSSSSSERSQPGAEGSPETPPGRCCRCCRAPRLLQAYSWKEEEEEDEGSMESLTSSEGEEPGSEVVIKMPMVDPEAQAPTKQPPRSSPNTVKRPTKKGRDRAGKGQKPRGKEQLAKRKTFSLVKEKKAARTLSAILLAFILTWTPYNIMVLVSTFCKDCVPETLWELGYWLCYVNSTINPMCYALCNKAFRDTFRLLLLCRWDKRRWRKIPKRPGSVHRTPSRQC
As to the kind of experiment: Alphascreen Surefire phospho-ERK1/2 functional assay, M1. It counts as cell-based. As to conditions: for EC50: read-out: pEC50 M1 (converted); for Emax: CHO, read-out: % Emax cf. ACh, M1, CHO cells stably expressing human M1; for Emax / % Emax cf. ACh, M1: relative to ACh.

Assay [2] addresses T2, human muscarinic M4 receptor (Homo sapiens, UniProt P08173).
T2 construct: expressed in transfected cells
T2 sequence (P08173 1-479): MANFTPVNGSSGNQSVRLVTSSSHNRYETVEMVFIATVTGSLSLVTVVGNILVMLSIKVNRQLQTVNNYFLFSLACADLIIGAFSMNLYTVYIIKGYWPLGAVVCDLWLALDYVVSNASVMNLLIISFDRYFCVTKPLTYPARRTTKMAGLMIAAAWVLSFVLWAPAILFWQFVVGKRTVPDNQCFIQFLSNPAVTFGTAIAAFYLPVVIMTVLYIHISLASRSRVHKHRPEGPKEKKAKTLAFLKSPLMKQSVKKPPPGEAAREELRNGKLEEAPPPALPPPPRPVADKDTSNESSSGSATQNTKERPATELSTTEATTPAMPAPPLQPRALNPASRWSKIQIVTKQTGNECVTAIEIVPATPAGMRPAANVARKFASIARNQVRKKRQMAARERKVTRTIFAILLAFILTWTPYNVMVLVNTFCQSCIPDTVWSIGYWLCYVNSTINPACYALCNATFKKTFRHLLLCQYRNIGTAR
The assay can be described thus: Alphascreen Surefire phospho-ERK1/2 functional assay, M4. Format: cell-based. To be noted: for EC50 / % Emax cf. ACh, M4: CHO cells stably expressing human M4; for EC50: phospho-ERK1/2, * = variable results, read-out: pEC50 M4 (converted); for Emax: CHO, read-out: % Emax cf. ACh, M4, CHO cells stably expressing human M4; for Emax / % Emax cf. ACh, M4: relative to ACh.

Setting [3] is: CHO cells stably expressing human M1, phospho-ERK1/2, * = variable results.
The mark [4] stands for this setting: CHO cells stably expressing human M1.

On to `CCOC(=O)N1CCC2(CC(N3CCC(N4C[C@H](F)C[C@@H]4C(=O)OC)CC3)C2)C1` (single isomer, unassigned) [2-134 Isomer 2], for which the EC50 in assay [1] (setting [3]) was > 20 µM; in assay [2], 0.0631 µM. In addition, the Emax in assay [1] was found to be 18%; in assay [2] it was 95%.
The like results for `CCOC(=O)N1CCC2(CC(N3CCC(N4C[C@@H](F)C[C@@H]4C(=O)OC)CC3)C2)C1` (single isomer, unassigned) [2-135 Isomer 2] were, in that order, > 20 µM, 0.0126 µM, 15% and 90%.
For the compound `CCOC(=O)N1CCC2(CC(N3CCC(N4C[C@H](F)C[C@@H]4CO)CC3)C2)C1` (single isomer, unassigned) [2-136 Isomer 2], the EC50 was 0.631 µM in assay [1] (setting [3]) and 0.0126 µM in assay [2].
As for `CCOC(=O)N1CCC2(CC(N3CCC(N4C[C@@H](F)C[C@@H]4CO)CC3)C2)C1` (single isomer, unassigned) [2-137 Isomer 2], the EC50 in assay [1] (setting [3]) was 1 µM; in assay [2], 0.0398 µM. In addition, the Emax in assay [1] is 78%; in assay [2], 111%.
For `CCOC(=O)N1CCC2(CC(N3CCC([C@@H]4CCCN4c4nnc(C)o4)CC3)C2)C1` (single isomer, unassigned) [2-138 Isomer 2], the values for the EC50 in assay [1] (setting [3]) and in assay [2] were > 20 µM and 0.0398 µM, respectively. The values for the maximum response (Emax) in assay [1] and in assay [2] were 17% and 44%, respectively.
Consider `CCOC(=O)N1CCC2(CC(N3CCC(c4cnc(OC)c(C)c4)CC3)C2)C1` (single isomer, unassigned) [3-7 Isomer 2, ethyl 2-[4-(6-methoxy-5-methylpyridin-3-yl)piperidin-1-yl]-6-azaspiro[3.4]octane-6-carboxylate], for which the EC50 in assay [1] (setting [3]) is > 20 µM; in assay [2] it was 0.1 µM. In addition, the Emax turned out to be 40% in assay [1] and 39% in assay [2].
In the case of `CCOC(=O)N1CCC2(CC(N3CCC(c4c(C)ccnc4OC)CC3)C2)C1` (single isomer, unassigned) [3-11 Isomer 2, ethyl 2-[4-(2-methoxy-4-methylpyridin-3-yl)piperidin-1-yl]-6-azaspiro[3.4]octane-6-carboxylate], the EC50 is 0.0398 µM in assay [1] (setting [3]) and 0.0251 µM in assay [2]. Further, the Emax was found to be 36% in assay [1] and 58% in assay [2].
In the case of `CCOC(=O)N1CCC2(CC(N3CCC(c4c(C)cc[nH]c4=O)CC3)C2)C1` (single isomer, unassigned) [3-14 Isomer 1, ethyl 2-[4-(4-methyl-2-oxo-1,2-dihydropyridin-3-yl)piperidin-1-yl]-6-azaspiro[3.4]octane-6-carboxylate], the figures for the EC50 in assay [1] (setting [3]) and in assay [2] were 3.16 µM and 0.501 µM, respectively. Further, the “% Emax cf. ACh, M1” value in assay [1] (setting [4]) turned out to be 65%. For the same compound, in assay [2], the Emax came to 65%.
For `CCOC(=O)N1CCC2(CC(N3CCC(c4c(C)cc[nH]c4=O)CC3)C2)C1` (single isomer, unassigned) [3-14 Isomer 2, ethyl 2-[4-(4-methyl-2-oxo-1,2-dihydropyridin-3-yl)piperidin-1-yl]-6-azaspiro[3.4]octane-6-carboxylate], in assay [1] (setting [3]), the “pEC50 M1” value was 5.5. Moreover, the “% Emax cf. ACh, M1” value in assay [1] (setting [4]) is 29%. For the same compound, in assay [2], the EC50 was 0.251 µM and the “% Emax cf. ACh, M4” value is 75%.
Regarding `CCOC(=O)N1CCC2(CC(N3CCC(c4cc(C)c[nH]c4=O)CC3)C2)C1` (single isomer, unassigned) [3-15 Isomer 2, ethyl 2-[4-(5-methyl-2-oxo-1,2-dihydropyridin-3-yl)piperidin-1-yl]-6-azaspiro[3.4]octane-6-carboxylate], the EC50 in assay [1] (setting [3]) is 0.251 µM; in assay [2], 0.0398 µM. Moreover, the maximum response (Emax) in assay [1] amounted to 60%; in assay [2] it was 36%.
Taken in the same sequence, the figures for `CCOC(=O)N1CCC2(CC(N3CCC(c4cc[nH]c(=O)c4)CC3)C2)C1` (single isomer, unassigned) [3-16 Isomer 2, ethyl 2-[4-(2-oxo-1,2-dihydropyridin-4-yl)piperidin-1-yl]-6-azaspiro[3.4]octane-6-carboxylate] were 7.94 µM, 2.51 µM, 39% and 47%.
Consider `CCOC(=O)N1CCC2(CC(N3CCC(C4CCCNC4=O)CC3)C2)C1` (single isomer, unassigned) [4-1 Isomer 2, ethyl 2-(2-oxo-3,4′-bipiperidin-1′-yl)-6-azaspiro[3.4]octane-6-carboxylate], for which, in assay [1] (setting [3]), the EC50 was > 20 µM. For the same compound, the “% Emax cf. ACh, M1” value in assay [1] (setting [4]) came out at 10%. For the same compound, in assay [2], the EC50 was 0.0692 µM and the “% Emax cf. ACh, M4” value is 47%.
In the case of `COC(=O)N1CCC2(CC(N3CCC(C4CCCNC4=O)CC3)C2)C1` (single isomer, unassigned) [4-2 Isomer 4, methyl 2-(2-oxo-3,4′-bipiperidin-1′-yl)-6-azaspiro[3.4]octane-6-carboxylate], the EC50 in assay [1] (setting [3]) was 0.794 µM; in assay [2], 0.0794 µM. Moreover, the results for the Emax in assay [1] and in assay [2] were 94% and 42%, respectively.
Taken in the same sequence, the figures for `CCOC(=O)N1CCC2(CC(N3CCC(N4CCCCC4)CC3)C2)C1` (single isomer, unassigned) [4-10 Isomer 2, ethyl 2-(1,4′-bipiperidin-1′-yl)-6-azaspiro[3.4]octane-6-carboxylate] were > 20 µM, 0.251 µM, 7% and 31%.
As for `CCOC(=O)N1CCC2(CC(N3CCC(N4CCOCC4)CC3)C2)C1` (single isomer, unassigned) [4-11 Isomer 2, ethyl 2-[4-(morpholin-4-yl)piperidin-1-yl]-6-azaspiro[3.4]octane-6-carboxylate], the EC50 in assay [1] (setting [3]) is > 20 µM; in assay [2] it was 0.2 µM. The Emax was 54% in assay [1] and 55% in assay [2].
As for `CCOC(=O)N1CCC2(CC(N3CCC(N4CCCC[C@@H]4C(=O)NC)CC3)C2)C1` (single isomer, unassigned) [4-16 Isomer 2], the results for the EC50 in assay [1] (setting [3]) and in assay [2] were 1 µM and 0.158 µM, respectively. Moreover, the Emax in assay [1] is 94%; in assay [2] it was 105%.
On to `CCOC(=O)N1CCC2(CC(N3CCC(N4CCCC[C@@H]4C(=O)N(C)C)CC3)C2)C1` (single isomer, unassigned) [4-17 Isomer 2], for which the EC50 was > 20 µM in assay [1] (setting [3]) and 0.251 µM in assay [2]. The Emax in assay [1] was 27%; in assay [2], 106%.
As to `CCOC(=O)N1CCC2(CC(N3CCC(N4CCCC[C@H]4C(=O)NC)CC3)C2)C1` (single isomer, unassigned) [4-18 Isomer 2], the EC50 in assay [1] (setting [3]) was 3.16 µM; in assay [2], 0.631 µM. Moreover, the Emax in assay [1] was 76%; in assay [2] it was 79%.
Taken in the same sequence, the figures for `CCOC(=O)N1CCC2(CC(N3CCC(C4CCCCN4C(=O)CC)CC3)C2)C1` (single isomer, unassigned) [4-19 Isomer 2, ethyl 2-(1-propanoyl-2,4′-bipiperidin-1′-yl)-6-azaspiro[3.4]octane-6-carboxylate] were > 20 µM, 0.251 µM, 7% and 38%.
Consider `CCOC(=O)N1CCC2(CC(N3CCC(C4CCCCN4C(=O)NC)CC3)C2)C1` (single isomer, unassigned) [4-20 Isomer 2, ethyl 2-[1-(methylcarbamoyl)-2,4′-bipiperidin-1′-yl]-6-azaspiro[3.4]octane-6-carboxylate], for which the EC50 is > 20 µM in assay [1] (setting [3]) and 0.158 µM in assay [2]. The Emax in assay [1] stood at 11%; in assay [2], 34%.
